Read-outs that look alike come from different tables or passages of the source.
What was measured:
Caco-2 cells = assay: Caco-2 NRU cytotoxicity; format: cell-based, human; settings: carrier solvent as positive control
[1] = molecular target: T1, progesterone receptor (PR) (Homo sapiens, UniProt P06401); assay: PR-CALUX-Anta; format: cell-based; settings: antagonist mode, 20% suppression
T1 sequence (P06401 1-933): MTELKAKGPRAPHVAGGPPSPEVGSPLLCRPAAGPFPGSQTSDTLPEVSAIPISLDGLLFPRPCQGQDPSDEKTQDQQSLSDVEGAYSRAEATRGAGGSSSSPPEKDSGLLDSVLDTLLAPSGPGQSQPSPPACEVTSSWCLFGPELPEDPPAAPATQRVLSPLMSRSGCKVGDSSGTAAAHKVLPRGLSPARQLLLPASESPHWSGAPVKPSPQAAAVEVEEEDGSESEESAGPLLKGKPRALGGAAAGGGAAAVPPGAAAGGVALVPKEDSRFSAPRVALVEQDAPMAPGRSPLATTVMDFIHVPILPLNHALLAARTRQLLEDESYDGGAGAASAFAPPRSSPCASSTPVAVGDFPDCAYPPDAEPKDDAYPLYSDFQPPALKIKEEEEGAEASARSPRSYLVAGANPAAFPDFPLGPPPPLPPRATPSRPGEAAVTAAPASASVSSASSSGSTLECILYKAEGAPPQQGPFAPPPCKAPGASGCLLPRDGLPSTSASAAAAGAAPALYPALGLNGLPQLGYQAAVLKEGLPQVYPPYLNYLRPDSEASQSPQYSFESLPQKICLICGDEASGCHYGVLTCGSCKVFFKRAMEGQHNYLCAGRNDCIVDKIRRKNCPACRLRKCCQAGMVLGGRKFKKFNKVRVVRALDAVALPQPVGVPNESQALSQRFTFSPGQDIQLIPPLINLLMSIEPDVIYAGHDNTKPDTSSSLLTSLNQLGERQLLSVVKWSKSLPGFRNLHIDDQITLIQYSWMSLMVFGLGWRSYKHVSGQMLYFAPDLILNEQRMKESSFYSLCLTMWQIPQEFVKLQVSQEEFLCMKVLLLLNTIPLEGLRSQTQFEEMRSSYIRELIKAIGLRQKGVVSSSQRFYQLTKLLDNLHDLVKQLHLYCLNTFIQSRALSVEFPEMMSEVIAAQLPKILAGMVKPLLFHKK

[2] = molecular target: T2, peroxisome proliferator-activated receptor (PPARγ) (Homo sapiens, UniProt P37231); settings: read-out: EC50 value in literature; antagonist mode; ref Invitrogen, 2007b; cited from earlier work
T2 sequence (P37231 238-505 limits assumed): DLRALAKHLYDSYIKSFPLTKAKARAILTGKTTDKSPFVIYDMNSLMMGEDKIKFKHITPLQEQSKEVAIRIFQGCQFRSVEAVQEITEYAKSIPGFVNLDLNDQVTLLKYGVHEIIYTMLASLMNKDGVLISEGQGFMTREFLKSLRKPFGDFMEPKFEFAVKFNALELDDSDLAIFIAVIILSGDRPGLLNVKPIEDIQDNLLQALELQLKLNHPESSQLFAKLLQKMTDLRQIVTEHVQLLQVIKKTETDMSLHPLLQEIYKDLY

[3] = molecular target: T2, peroxisome proliferator-activated receptor (PPARγ); assay: PPARγ-GeneBLAzer-Anta; format: cell-based; settings: antagonist mode
[4] = test system: thyroid activity (cell proliferation); assay: T-SCREEN cell proliferation assay, thyroid effects; format: cell-based
[5] = test system: thyroid activity (cell proliferation); settings: read-out: EC50 value in literature; ref Gutleb et al., 2005; cited from earlier work
[6] = test system: arylhydrocarbon receptor (AhR); assay: AhR CAFLUX; format: cell-based; settings: reference chemical
[7] = test system: arylhydrocarbon receptor (AhR); settings: read-out: EC50 value in literature; ref Macova et al., 2010; cited from earlier work
[8] = test system: monocyte cell line (THP1); assay: THP1-cp cytokine production
[9] = molecular target: T3, glucocorticoid receptor (GR) (Homo sapiens, UniProt P04150); assay: GR-Switchgear; format: cell-based; settings: reference chemical
T3 sequence (P04150 1-777): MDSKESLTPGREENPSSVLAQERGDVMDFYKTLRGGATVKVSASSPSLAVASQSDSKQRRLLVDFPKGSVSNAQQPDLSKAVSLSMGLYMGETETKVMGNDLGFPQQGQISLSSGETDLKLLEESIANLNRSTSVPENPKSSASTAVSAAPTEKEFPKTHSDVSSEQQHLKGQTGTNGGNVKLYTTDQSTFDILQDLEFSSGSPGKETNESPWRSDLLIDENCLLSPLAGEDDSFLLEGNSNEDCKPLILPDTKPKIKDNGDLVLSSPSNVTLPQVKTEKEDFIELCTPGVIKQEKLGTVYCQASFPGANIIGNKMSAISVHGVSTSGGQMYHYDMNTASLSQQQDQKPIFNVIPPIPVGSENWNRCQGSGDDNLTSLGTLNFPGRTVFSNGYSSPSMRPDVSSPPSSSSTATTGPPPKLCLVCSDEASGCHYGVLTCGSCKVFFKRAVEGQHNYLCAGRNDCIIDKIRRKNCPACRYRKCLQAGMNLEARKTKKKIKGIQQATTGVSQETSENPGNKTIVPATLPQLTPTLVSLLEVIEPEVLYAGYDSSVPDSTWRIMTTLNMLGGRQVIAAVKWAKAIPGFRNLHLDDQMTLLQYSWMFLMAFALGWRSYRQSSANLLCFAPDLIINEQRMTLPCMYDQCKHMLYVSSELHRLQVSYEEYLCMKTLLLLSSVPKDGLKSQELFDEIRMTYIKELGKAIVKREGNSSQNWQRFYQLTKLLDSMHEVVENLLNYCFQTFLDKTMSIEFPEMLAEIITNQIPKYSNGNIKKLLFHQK

[10] = test system: monocyte cell line (THP1); settings: read-out: EC50 value in literature; ref Leusch et al., 2014; cited from earlier work
[11] = molecular target: T1, progesterone receptor (PR); assay: PR-CALUX progestagenic effects; format: cell-based; settings: reference chemical
[12] = test system: neuroblastoma cells (SK-N-SH)
algae photosynthesis [13] = assay: I-PAM algae photosynthesis inhibition; format: cell-based
algae photosynthesis [14] = settings: read-out: EC50 value in literature, cited from earlier work
algae growth [15] = assay: Algae growth inhibition; format: cell-based
algae growth [16] = settings: read-out: EC50 value in literature; ref Escher et al., 2008a; cited from earlier work
Jurkat cell line = assay: Jurkat E6-1 osmotic stress assay; format: cell-based; settings: reference chemical
Nrf2-Keap-ARE32 pathway = settings: read-out: EC50 value in literature; ref Escher et al., 2012; cited from earlier work
Nrf2-MDA-MB cells [17] = settings: read-out: EC50 value in literature; ref Escher et al., 2012; cited from earlier work
Nrf2-MDA-MB cells [18] = assay: cells; format: cell-based, human

SMILES: CO [Methanol]
- EC10 (Caco-2 cells): 0.4 M

SMILES: CC#C[C@]1(O)CC[C@H]2[C@@H]3CCC4=CC(=O)CCC4=C3[C@@H](c3ccc(N(C)C)cc3)C[C@@]21C [Mifepristone]
- ECSR0.2 [1]: 20 pM

SMILES: O=C(Nc1ccccc1)c1cc([N+](=O)[O-])ccc1Cl [GW9662]
- EC50 [2]: 3.5 nM
- ECSR0.2 ([3]; 20% suppression): 3.0 nM
- IC50 ([3]; read-out: ECSR0.5, 50% suppression): 8.4 nM

SMILES: N[C@@H](Cc1cc(I)c(Oc2ccc(O)c(I)c2)c(I)c1)C(=O)O [Triiodothyronine]
- EC50 [4]: 0.74 nM
- EC10 ([4]; reference chemical): 0.28 nM
- EC50 [5]: 0.191 nM

SMILES: Clc1cc2c(cc1Cl)Oc1cc(Cl)c(Cl)cc1O2 [TCDD, 2,3,7,8-TCDD]
- EC10 [6]: 0.00065 nM
- EC50 [6]: 0.008 nM
- EC50 [7]: 0.0248 nM

SMILES: C[C@@H]1C[C@H]2[C@@H]3CCC4=CC(=O)C=C[C@]4(C)[C@@]3(F)[C@@H](O)C[C@]2(C)[C@@]1(O)C(=O)CO [Dexamethasone]
- EC50 ([8]; Homo sapiens, THP-1): 45 nM
- EC10 ([8]; reference chemical): 2.1 nM
- EC10 [9]: EC10 (0.5 nM); EC50 (2.6 nM)
- EC50 [10]: 2.7 nM

SMILES: C#C[C@]1(O)CC[C@H]2[C@@H]3CCC4=CC(=O)CC[C@@H]4[C@H]3CC[C@@]21CC [Levonorgestrel]
- EC10 [11]: 0.3 nM

SMILES: C[S+](C)[O-] [DMSO, Dimethylsulfoxide]
- EC10 [12]: 0.11 M

SMILES: CN(C)C(=O)Nc1ccc(Cl)c(Cl)c1 [Diuron]
- EC50 (algae photosynthesis [13]): 6 nM
- EC50 (algae photosynthesis [14]; ref Escher et al., 2008a): 12.8 nM
- EC50 (algae photosynthesis [14]; ref Macova et al., 2010): 68.6 nM
- EC50 (algae growth [15]): 25 nM
- EC50 (algae growth [16]): 135 nM

SMILES: CCCCCCCCCCCCCC(=O)O[C@@H]1[C@@H](C)[C@@]2(O)[C@@H](C=C(CO)C[C@]3(O)C(=O)C(C)=C[C@@H]23)[C@@H]2C(C)(C)[C@]12OC(C)=O [PMA, Phorbol-12-myristate-13-acetate]
- EC10 (Jurkat cell line): 3 nM
- EC50 (Jurkat cell line): 20 nM

SMILES: CC(C)(C)c1cc(O)ccc1O [tBHQ, tert-Butylhydroquinone]
- EC50 (Nrf2-Keap-ARE32 pathway): 1320 nM
- EC50 (Nrf2-MDA-MB cells [17]): 46000 nM
- EC50 (Nrf2-MDA-MB cells [18]; Homo sapiens): 178000 nM
- EC10 (Nrf2-MDA-MB cells [18]; human): 103000 nM
